The source of these data is patent US7223836B2, “Peptides for chlamydophila pneumoniae vaccine and diagnosis” (The United States of America as represented by the …, priority 2001, dated 2007).

No end group written: not given here.

In one assay the target is 8A6 mAb. Kind of assay: competitive inhibition ELISA: peptide blocks 8A6 mAb binding to sonicated C. pneumoniae. Also noted: species or system murine. As to the method: To perform these experiments, an ELISA was utilized in which mAb and inhibitor (phage) were premixed, incubated for 2 hours, and then plated onto the microtiter plates with renographin purified, sonicated whole-cell C. pneumoniae.
Several methods were used to determine binding specificity. […] The best synthetic peptides were selected by competing the peptide against the respective native C. pneumoniae lysate for binding to the target mAb.
(In an ELISA, binding on a coated surface is turned into a signal by an enzyme label.)

Assay [1] relates to 8A6 mAb binding to fixed, cultured C. pneumoniae cells (RBs and EBs). The assay is described as follows: competitive inhibition indirect IFA. Also noted: species or system murine. The note with it: serially diluted peptide. As to the method: The indirect immunofluorescence assay (IFA) was performed as described previously (Storey et al., 1993 and Wong Skelton Chan, 1992) with modifications. Antibiotic-free Buffalo African Green monkey cells were seeded into 1 dram shell vials or 24-well tissue culture trays containing 12 mm cover slips at a density of 3.0×10^5 cells/mL. Cells were incubated for 24 hours at 37° C. and checked for confluency. Cell cultures were infected by the addition of C. pneumoniae followed by centrifugation at 3000× g. Inclusions were counted using the Pathfinder® Chlamydia Culture Confirmation System staining kit (Sanofi Diagnostics Pasteur, Redmond, Wash.) as per manufacturer specifications. The 8A6 mAb was used as previously described (Wong et al. 1992) for detection of C. pneumoniae inclusions and to determine species specificity.
A competitive inhibition IFA assay was performed using the previously described IFA assay with modification. […]
Due to the subjective nature of IFA tests, it is difficult to standardize a competitive inhibition to obtain fluorescence measures. Instead, slides were scored from 1 to 4 such that a value of 3+ equals the endpoint titer and changes due to inhibition were scored empirically from comparison with control slides. […]

Assay [2] in a line: immunization of naive mice, antiserum ELISA. The note with it: intraperitoneal, 50–200 μg with aluminum hydroxide, boosters. It is filed as in vivo. As for the experimental part:
(§1) In order to identify immunologically reactive C. pneumoniae peptides that can be used in the development of a C. pneumoniae vaccine, naive mice and rabbits were immunized with various C. pneumoniae polypeptides. An exemplary protocol is as follows: 50–200 μg of CP-8A6-B1 (SEQ ID NO:4) was mixed with 1 mg of aluminum hydroxide, a less inflammatory alternative to Freund's adjuvant. Rabbits were injected subcutaneously at multiple sites with 0.05 ml of inoculum, whereas mice were immunized intraperitoneally with no more than 0.2 ml of inoculum. At least 2–3 weeks following the initial immunization, the mice and rabbits were given their first booster immunizations. Mice were given subsequent boosters at two week intervals for up to 6 total injections, whereas rabbits were typically injected every 4–6 weeks. […] Briefly, after the antigen was immobilized, the bound peptide was tested with serial dilutions of the mouse and rabbit antisera and was detected with a goat anti-mouse IgG or a goat anti-rabbit IgG heavy plus light chain antibody horseradish peroxidase conjugate (Pierce Scientific). […] Absorbance at 490 nm was recorded with an enzyme immunoassay reader (Bio-Tek Instruments, Burlington, Vt.). […] Wells with optical density readings greater than 0.2 units at 490 nm were indicative of an immunologically reactive antiserum.

A short description of assay [3]: immunization of naive rabbits, antiserum ELISA. It is filed as in vivo. The note with it: subcutaneous, 50–200 μg with aluminum hydroxide, boosters. As to the method:
as §1

[4] abbreviates: competitive inhibition ELISA, binding of 8A6 mAb to sonicated C. pneumoniae fixed to solid phase.

Turning to AFAQAPTHQLSL [CP-8A6-B3, AFAQAPTHQLSL], at 8A6 mAb (setting [4]), the “IC50 (50% Inhibiting Concentration)” value was found to be 6.46 µg/mL and the percent inhibition came to 67.8%.
For the sequence “ESNPVDGAHLSL [CP-8A6-B10A, ESNPVDGAHLSL]”, at 8A6 mAb (setting [4]), the “IC50 (50% Inhibiting Concentration)” value was found to be 18.90 µg/mL and the percent inhibition was determined as 57.4%.
As to HDEGRQIIQFEE [CP-8A6-A2, HDEGRQIIQFEE], at 8A6 mAb (setting [4]), the “IC50 (50% Inhibiting Concentration)” value worked out at 18.29 µg/mL and the percent inhibition was determined as 83.5%.
The like results for LRNCEQDFFTLN [CP-8A6-A3, LRNCEQDFFTLN] were, in that order, 18.54 µg/mL and 95.1%.
Consider “PNEPDDLALMRIIRI [CP-8A6-B1, PNEPDDLALMRIIRI]”, for which the percent inhibition with 8A6 mAb (at 50 μg/mL of peptide) and with 8A6 mAb (setting [4]) was 95.44% each time. At 8A6 mAb (setting [4]), the “IC50 (50% Inhibiting Concentration)” value came to 2.93 µg/mL. For the same sequence, the “peptide concentration down to which any observable binding of 8A6 mAb was completely blocked” value in assay [1] was 100 ng/mL. Also, the “immune response (antiserum reactivity by ELISA)” value in assay [2] and in assay [3] was “produced an immune response” each time.
Turning to RRLGRQTYDNES [CP-8A6-A1, RRLGRQTYDNES], on 8A6 mAb (setting [4]), the “IC50 (50% Inhibiting Concentration)” value amounted to 4.82 µg/mL and the percent inhibition is 84.5%.
